In patent US7923440B2, “Method of treating or preventing immune mediated disorders and pharmaceutical formulation for use therein” (Pantarhei Bioscience B.V., priority 2002, dated 2011):
Like-named read-outs stand apart in the source and are kept apart here.

Columns and labels:
[1] = system: DBA-1 mice developing collagen induced arthritis (CIA); assay: Collagen induced arthritis (CIA) in female DBA-1 mice; assay type: in vivo, mouse
immature rat uterus = conditions: subcutaneously administered, cited from earlier work
[2] = system: estrogen receptors in the human endometrium; conditions: cited from earlier work
[3] = target: T1, rat uterine cytosol estrogen receptor (Rattus norvegicus, UniProt P06211); conditions: Martucci et al. 1976; cited from earlier work
T1 construct: rat uterine cytosol estrogen receptor; host or cells: rat uterus, cytosol
T1 sequence (P06211 1-600): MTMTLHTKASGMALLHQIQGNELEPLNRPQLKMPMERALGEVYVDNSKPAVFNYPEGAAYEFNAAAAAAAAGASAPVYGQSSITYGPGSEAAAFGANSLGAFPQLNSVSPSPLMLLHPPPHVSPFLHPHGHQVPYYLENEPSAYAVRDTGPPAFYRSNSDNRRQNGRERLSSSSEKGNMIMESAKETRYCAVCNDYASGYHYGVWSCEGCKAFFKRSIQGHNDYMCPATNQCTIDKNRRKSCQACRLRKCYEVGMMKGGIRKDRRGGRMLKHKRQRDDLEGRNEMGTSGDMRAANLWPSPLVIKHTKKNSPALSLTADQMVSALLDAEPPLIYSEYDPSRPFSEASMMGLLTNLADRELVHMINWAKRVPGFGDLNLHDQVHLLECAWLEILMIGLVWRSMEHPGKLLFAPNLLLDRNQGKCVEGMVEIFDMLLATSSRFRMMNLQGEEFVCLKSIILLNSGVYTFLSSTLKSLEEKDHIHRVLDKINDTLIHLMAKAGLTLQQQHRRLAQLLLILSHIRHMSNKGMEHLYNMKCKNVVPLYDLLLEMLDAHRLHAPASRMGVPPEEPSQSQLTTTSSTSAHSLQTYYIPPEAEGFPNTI

nonpregnant ewes = conditions: intravenously administered, Levine et al. 1984; cited from earlier work
[4] = system: ovariectomized adult rats; assay: Vaginal cornification bioassay in ovariectomized rats; assay type: in vivo, rat; conditions: for Number of Rats Exhibiting Estrogenic Response/Number of Rats Treated: sc, Day 7
Text: Uterine weight increase in the rat is more commonly used as a measure of estrogenicity. […] In the early 1920s it was discovered that follicular fluid from the pig ovary contained a factor(s) that caused cornification/keratinization of the vaginal epithelium in the rat (Allen and Doisy, 1923, JAMA, 81, 819-821; Allen and Doisy, 1924, Am. J. Physiol., 69, 577-588). The so-called vaginal cornification response in rats subsequently provided a bioassay for testing estrogenicity. Vaginal epithelial cornification/keratinization in ovariectomized rats can be produced only by compounds considered to be true estrogens (Jones et al, 1973, Fert. Steril. 24, 284-291). […] Adult intact female CD rats were ovariectomized to induce estrogen deficiency. […] Castrate vaginal smears are indicative that complete ovariectomy was achieved. Treatment commenced following completion of the 7 days of smearing (day 0=first day of dosing). Animals were dosed, once daily for 7 consecutive days. Daily vaginal lavages continued to be obtained for 7 days after dosing was initiated in order to detect vaginal cornification, as an indication of an estrogenic response. A drop of vaginal washings was placed on a glass slide and examined by light microscopy to detect the presence or absence of cornified epithelial cells. Vaginal lavages were obtained prior to dosing on days 0-6 and prior to necropsy on day 7. The vaginal cornification bioassay was performed in order to determine the estrogenic profile of E4 when given subcutaneously (sc) to ovariectomized adult rats. E2 was used as a positive control. The vehicle (10% ethanol/sesame oil) served as the negative control. Steroids were dissolved in absolute ethanol and then brought to the final concentration with sesame oil (10% ethanol in sesame oil). […] The vaginal cornification bioassay was performed in order to determine the estrogenic profile of E4 when given orally (po) to ovariectomized adult rats. EE was used as a positive control. The vehicle (10% ethanol/sesame oil) served as the negative control. […]

[5] = Single rising oral dose study in healthy postmenopausal volunteers; assay type: in vivo, human
Method: To determine the bioavailability and elimination half-life of estetrol after oral dosing in humans a single rising dosing study was performed in healthy postmenopausal volunteers. Volunteers (n=6) were randomly assigned to 0.1, 1 or 10 mg estetrol and blood samples (18 per volunteer) were obtained over a period of 72 hours.
After thawing the plasma samples, liquid-liquid extraction (hexane and diethyl ether) was employed to prepare the estetrol-containing plasma samples for HPLC analysis (Perkin Elmer 200) and tandem mass spectrometry using a PE Sciex 4000 tandem mass spectrometer and APCI interface. With each sample batch, a calibration curve with 6 calibrators was recorded. The calibration curve was calculated using linear regression (correlation coefficient >0.98), which permitted quantitation of plasma concentrations.

[6] = system: human breast cancer cells (MCF-7); conditions: in vitro cell proliferation, Jozan et al. 1981; cited from earlier work
[7] = ovariectomized female DBA-1 mice, sc and oral 0.1-3.0 mg/kg/day, 60 days

In the case of `C[C@]12CC[C@@H]3c4ccc(O)cc4CC[C@H]3[C@@H]1[C@@H](O)[C@@H](O)[C@@H]2O` [E4, 1,3,5 (10)-estratrien-3,15α,16α,17β-tetrol], the “symptoms and severity of CIA” value ([1]; non-castrated female DBA-1, daily sc and/or oral) is reported as “dose-dependently alleviate symptoms and severity of CIA”, the “number of afflicted animals and/or severity of CIA symptoms” value [1, 7] is reported as “dose-dependently reduced” and the “onset of CIA symptoms” value [1, 7] is reported as “dose-dependent effects in delaying the onset of CIA symptoms”. The uterotrophic activity (immature rat uterus; Holinka et al. 1979) was “very weak uterotrophic activity”, the uterotrophic activity (immature rat uterus; Holinka et al. 1980) was “very weak uterotrophic activity” and the “relative binding constant compared to 17β-estradiol (100%)” value ([2]; Tseng et al. 1976) was 6.25%. For the same molecule, the “Relative binding to estrogen receptors, of 17β-estradiol” value ([2]; Tseng et al. 1978) was 1.5%, the “relative binding affinity, of 17β-estradiol (100%)” value [3] was 0.5% and the “potency in uterine vasodilation relative to estriol and 17β-estradiol” value (nonpregnant ewes) was 15 to 30 times less potent. For the same molecule, the “onset of vaginal cornification, po versus sc” value ([4]; amount of animals responding at days 1-3, even at low doses (e.g. 0.1 mg/kg/day)) was “faster in po-treated than in sc-treated animals”, the “Number of Rats Exhibiting Estrogenic Response/Number of Rats Treated” value ([4]; 1.0 mg/kg/day, 1 mg/kg/day) was “all rats” and the “Number of Rats Exhibiting Estrogenic Response/Number of Rats Treated” value ([4]; 3.0 mg/kg/day, 3 mg/kg/day) was “all rats”. For the same molecule, the half-life ([5]; female, human, plasma, po, human postmenopausal subjects, read-out: elimination half-life) was > 15 h, the tolerability ([5]; oral single dose 0.1, 1, 10 mg, postmenopausal volunteers) was “Good tolerability” and the AUC dose-linearity ([5]; oral single dose 0.1 to 10 mg, postmenopausal volunteers) was “good dose-linearity”. The “agonistic potency relative to 17β-estradiol” value [6] was 2%.
